3 molecules from US8518678B2, “Strain comprising increased expression of a CFA coding region for butanol production” (Butamax(TM) Advanced Biofuels LLC, priority 2007, dated 2013) can be followed below.

Where two headings read alike, the source gives them in different places.

For experiment [1], the system named is Lactobacillus plantarum PN2014. The note with it: shake flask; for PN2014, % Growth inhibition: semi-synthetic LAB medium pH7; for PN2014 (control plasmid) μ: semi-synthetic LAB medium pH7, 30° C.
For experiment [2], the system named is Lactobacillus plantarum PN2001. The following applies: shake flask; for PN2001, % Growth inhibition: semi-synthetic LAB medium pH7; for PN2001 (cfa1 plasmid) μ: semi-synthetic LAB medium pH7, 30° C.
Experiment [3] has as its system butanol non-producing bacterial cells. Description: Feeding with fatty acids followed by screening for butanol tolerance. The experiment is classed as cell-based. The note with it: fed to cells; among about ten different fatty acids tested. An excerpt: The discovery came from results of studies on feeding butanol non-producing bacterial cells with different fatty acids followed by screening for butanol tolerance.

The subject of experiment [4] is L. plantarum PN2010. Nature of the experiment: Bioscreen-C growth analysis in MRS medium, PN2010 (cfa2). The experiment is classed as cell-based, Lactobacillus plantarum. The following applies: strain PN2010 (cfa2). The procedure: (§1) For Bioscreen-C (instrument purchased from Growth Curves USA, Piscataway N.J.) growth curves, the cultures were grown overnight in MRS medium containing 1 μg/ml erythromycin at 30° C. The next day, these were diluted to OD600 of 0.1 in the wells of the Bioscreen plate with MRS medium containing 1 μg/ml erythromycin and either 2.25% (w/v) isobutanol or no isobutanol at 30° C.
(§2) L. plantarum strains PN2001, PN2003, PN2005, PN2010, PN2012, and PN2014 were tested for growth in a Bioscreen-C growth curve machine in the presence of isobutanol as described in General Methods. These growth assays were conducted in MRS medium, which contains 1 g/L polysorbate 80 (commercially also known as Tween® 80) that serves as a source of oleic acid. Erythromycin at 1 μg/ml was added to the medium to maintain the plasmids. It is well known that L. plantarum grown in MRS medium incorporates oleic acid into membrane lipids (Johnsson et al. (1995) Appl. Environ. Microbiol. 61:4497-4499).

Experiment [5] concerns L. plantarum PN2003. Description: Bioscreen-C growth analysis in MRS medium, PN2003 (cfa1). The format is cell-based, Lactobacillus plantarum. The following applies: strain PN2003 (cfa1), 2.25% isobutanol. The procedure:
as §1, §2

For experiment [6], the system named is Lactobacillus plantarum PN1310. Nature of the experiment: Change in OD600 in S36 medium, PN1310 (spoT mutant, vector). The format is cell-based. The note with it: 3% isobutanol. From the text:
(§3) The purpose of this Example was to test the effect of a combination of cfa1 overexpression and spoT mutation on the isobutanol tolerance of Lactobacillus plantarum. To create a strain with both gene modifications, pFP996-atpB-cfa1 (described in Example 1; also called pFP996-1)) was transformed into the MS0280 strain (described in Example 4; also called PN1300) creating strain PN1312. For a control strain, pFP996 (described in Example 1) was transformed into MS0280 creating PN1310. Strain PN1312, which contained a multicopy expression plasmid with cfa1, was compared to strain PN1310, which contained the vector control.
(§4) The growth of the strains over time was followed, and tolerance compared as follows. The strains were cultured in S36 medium (contains 10 mM ammonium sulfate, 5 mM potassium phosphate buffer, pH 6.0, 50 mM MES, pH 6.0, 2 mM MgCl2, 0.7 mM CaCl2, 50 μM MnCl2, 1 μM FeCl3, 1 μM ZnCl2, 1.72 μM CuCl2, 2.53 μM CoCl2, 2.42 μM Na2MoO4, 2 μM thiamine hydrochloride, 0.01 M glucose, 0.2% yeast extract and 0.01% casamino acids) overnight at 30° C. under anaerobic conditions. The next day, cultures were started from the overnight cultures in fresh medium, with initial OD600 values of 0.18. These cultures were incubated at 30° C. under anaerobic conditions for 4 hours. During this time, PN1310 reached an OD600 of 0.83, and PN1312 reach an OD600 of 0.61. […]

Experiment [7] relates to L. plantarum PN2001. Nature of the experiment: Bioscreen-C growth analysis in MRS medium, PN2001 (cfa1). The experiment is classed as cell-based, Lactobacillus plantarum. The following applies: strain PN2001 (cfa1). The procedure:
as §1, §2

In experiment [8] the test system is E. coli strain DPD4658. Nature of the experiment: Bioscreen-C growth in LB medium, DPD4658 (control lacZ overexpression). The format is cell-based. The following applies: 3 hour and 15 minute time point; for OD600 (+/− st dev): LB medium, 37° C. The procedure: (§5) E. coli strains DPD4655 and DPD4658 were grown overnight in LB medium containing 100 μg/ml ampicillin at 37° C. The next day, these were diluted to OD600 of 0.1 in the wells of a Bioscreen-C plate (instrument and plates purchased from Growth Curves USA, Piscataway N.J.) with LB medium and either 0.4%, 0.8% (w/v) isobutanol or no isobutanol at 37° C. in triplicate. OD was monitored and the OD at the 3 hour and 15 minute time point was used to calculate the % of growth in the presence of isobutanol as compared with its absence, given in Table 15.

Experiment [9] has as its system L. plantarum PN2012. Nature of the experiment: Bioscreen-C growth analysis in MRS medium, PN2012 (control). The format is cell-based, Lactobacillus plantarum. The note with it: strain PN2012 (no gene on plasmid). The procedure:
as §1, §2

Experiment [10] deals with Lactobacillus plantarum PN2001. Nature of the experiment: microbe, parasite or virus in culture. The note with it: Lactiplantibacillus plantarum, PN2001, pH 7, read-out: PN2001, % Growth inhibition.
Experiment [11] deals with Lactobacillus plantarum PN2014. Description: microbe, parasite or virus in culture. The note with it: Lactiplantibacillus plantarum, PN2014, pH 7, read-out: PN2014, % Growth inhibition.
For experiment [12], the system named is Lactobacillus plantarum PN1312. Nature of the experiment: Change in OD600 in S36 medium, PN1312 (spoT mutant, cfa1). The format is cell-based. The note with it: 3% isobutanol.
From the text: as §3, §4

For experiment [13], the system named is L. plantarum PN2014. Description: Bioscreen-C growth analysis in MRS medium, PN2014 (control). The experiment is classed as cell-based, Lactobacillus plantarum. The note with it: strain PN2014 (no gene on plasmid). The procedure:
as §1, §2

The subject of experiment [14] is L. plantarum PN2005. Description: Bioscreen-C growth analysis in MRS medium, PN2005 (cfa2). The following applies: strain PN2005 (cfa2). The format is cell-based, Lactobacillus plantarum. As for the experimental part: as §1, §2
In experiment [15] the test system is E. coli strain DPD4655. Nature of the experiment: Bioscreen-C growth in LB medium, DPD4655 (cfa overexpression). The format is cell-based. The note with it: 3 hour and 15 minute time point; for OD600 (+/− st dev): LB medium, 37° C. The procedure: as §5
Setting [16] is: MRS medium (source of oleic acid), 30° C.

Take `CCC(C)O` (stereo not shown) [2-butanol]: the “PN2014, % Growth inhibition” value in [1] (2-butanol 3.5% w/v) is 48%; in [1] (2-butanol 4.0% w/v) it was 59%; in experiment [1] (2-butanol 4.25% w/v), 47%; in experiment [1] (2-butanol 4.5% w/v) it was 79%; in experiment [1] (2-butanol 4.75% w/v), 89%; in experiment [1] (2-butanol 5.0% w/v), 100%. The “PN2014 (control plasmid) μ” value in [1] (2-butanol 3.5% w/v) was 0.153 h⁻¹; in experiment [1] (2-butanol 4.0% w/v) it was 0.123 h⁻¹; in experiment [1] (2-butanol 4.25% w/v), 0.158 h⁻¹; in experiment [1] (2-butanol 4.5% w/v) it was 0.061 h⁻¹; in experiment [1] (2-butanol 4.75% w/v), 0.034 h⁻¹; in experiment [1] (2-butanol 5.0% w/v) it was 0.00 h⁻¹. Further, the “PN2001, % Growth inhibition” value in [2] (2-butanol 3.5% w/v) is listed as 54%; in experiment [2] (2-butanol 4.0% w/v), 56%; in [2] (2-butanol 4.25% w/v) it was 61%; in [2] (2-butanol 4.5% w/v), 62%; in experiment [2] (2-butanol 4.75% w/v), 76%; in experiment [2] (2-butanol 5.0% w/v), 73%. The “PN2001 (cfa1 plasmid) μ” value in experiment [2] (2-butanol 3.5% w/v) was determined as 0.132 h⁻¹; in experiment [2] (2-butanol 4.0% w/v) it was 0.125 h⁻¹; in experiment [2] (2-butanol 4.25% w/v) it was 0.111 h⁻¹; in experiment [2] (2-butanol 4.5% w/v), 0.108 h⁻¹; in experiment [2] (2-butanol 4.75% w/v), 0.068 h⁻¹; in experiment [2] (2-butanol 5.0% w/v), 0.078 h⁻¹.

Regarding `CCCCCCCC[C@@H]1C[C@@H]1CCCCCCCC(=O)O` [dihydrosterculic acid], in experiment [3], the “effect of feeding on butanol tolerance” value was “increased butanol tolerance”.

Regarding `CC(C)CO` [isobutanol], the “% Growth inhibition” value in [4] (2.25% isobutanol, MRS medium) worked out at 39%; in [5], 34%; in experiment [7] (2.25% isobutanol, MRS medium) it was 32%; in [9] (2.25% isobutanol, MRS medium), 51%; in [13] (2.25% isobutanol, MRS medium), 42%; in experiment [14] (2.25% isobutanol, MRS medium), 39%. The “μ (2.25% isobutanol)” value in [4] (setting [16]) is 0.33 h⁻¹; in experiment [7] (setting [16]), 0.32 h⁻¹; in [9] (setting [16]), 0.20 h⁻¹; in [13] (setting [16]) it was 0.22 h⁻¹; in [14] (setting [16]), 0.31 h⁻¹. Moreover, the “growth in the presence of isobutanol (FIG. 1B)” value in [1] (PN2014, 3% isobutanol) was “did not grow”. In addition, the “PN2014 (control plasmid) μ” value in [1] (isobutanol 2.25% w/v) is 0.170 h⁻¹; in experiment [1] (isobutanol 2.5% w/v) it was 0.118 h⁻¹; in [1] (isobutanol 2.75% w/v) it was 0.037 h⁻¹; in experiment [1] (isobutanol 3.0% w/v), 0.00 h⁻¹; in [1] (isobutanol 3.2% w/v), 0.00 h⁻¹. Also, the inhibited for growth in experiment [6] (PN1310 (vector alone)) turned out to be 75%; in experiment [12] (PN1312 (cfa1 overexpression)), 59%. Moreover, the “2 h Δ OD” value amounted to 0.3 in experiment [6] (PN1310 (vector), S36 medium, 30° C, anaerobic) and 0.5 in [12] (PN1312 (cfa1), S36 medium, 30° C, anaerobic). The “growth in the presence of isobutanol (FIG. 1A)” value in experiment [2] (PN2001, 3% isobutanol) is reported as “grew”. The “PN2001 (cfa1 plasmid) μ” value in experiment [2] (isobutanol 2.25% w/v) came out at 0.187 h⁻¹; in [2] (isobutanol 2.5% w/v), 0.119 h⁻¹; in experiment [2] (isobutanol 2.75% w/v) it was 0.104 h⁻¹; in [2] (isobutanol 3.0% w/v), 0.029 h⁻¹; in experiment [2] (isobutanol 3.2% w/v), 0.00 h⁻¹. The “% OD +isobutanol/−isobutanol” value in experiment [8] (isobutanol 0.4% (w/v)) is 63%; in experiment [8] (isobutanol 0.8% (w/v)) it was 42%; in experiment [15] (isobutanol 0.4% (w/v)), 72%; in [15] (isobutanol 0.8% (w/v)), 50%. Also, the “OD600 (+/− st dev)” value in experiment [8] (isobutanol 0.4% (w/v)) is 0.259 +/− 0.004; in experiment [8] (isobutanol 0.8% (w/v)), 0.174 +/− 0.011; in experiment [15] (isobutanol 0.4% (w/v)), 0.318 +/− 0.005; in experiment [15] (isobutanol 0.8% (w/v)), 0.220 +/− 0.006. Besides, the figures for the inhibition at 2.25 % strength in experiment [10] and in experiment [11] were 46% and 50%, respectively. Also, the inhibition at 2.5 % strength in [10] and in [11] was 66% in each case. Besides, the results for the inhibition at 2.75 % strength in experiment [10] and in experiment [11] were 70% and 89%, respectively. Besides, the inhibition (as a rule, the drop in the measured response relative to a control, in per cent) at 3 % strength in experiment [10] stood at 92%; in experiment [11], 100%. Moreover, the inhibition at 3.2 % strength in experiment [10] and in experiment [11] was 100% throughout.
